Tested on: SEM cells
Experiment: cell viability relative to DMSO control; higher = less cytotoxic
Conditions: 48 h
Summary of the method: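 Leukemia cells (NOMO1 or SEM, 500 cells/well; P12-Ichikawa, 1000 cells/well) were seeded in 5 μl in 1536-well plates after at least four passages of adaptation to each medium. They received library compounds in DMSO by pin dosing, 11 threefold points from 47 μM to 0.79 nM. Luminescence with CellTiter-Glo One was read after 48 h at 37°C. Viability is stated per plate relative to DMSO wells, with cell-free wells as background.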

[1] = HPLM + 10% dialyzed FBS, 0.000781 µM
[2] = HPLM + 10% dialyzed FBS, 0.00234 µM
[3] = HPLM + 10% dialyzed FBS, 0.00702 µM
[4] = HPLM + 10% dialyzed FBS, 0.0211 µM
[5] = HPLM + 10% dialyzed FBS, 0.0632 µM
[6] = HPLM + 10% dialyzed FBS, 0.19 µM
[7] = HPLM + 10% dialyzed FBS, 0.569 µM
[8] = HPLM + 10% dialyzed FBS, 1.71 µM
[9] = HPLM + 10% dialyzed FBS, 5.12 µM
[10] = HPLM + 10% dialyzed FBS, 15.4 µM
[11] = HPLM + 10% dialyzed FBS, 46.1 µM
[12] = RPMI 5 mM glucose + 10% FBS, 0.000781 µM
[13] = RPMI 5 mM glucose + 10% FBS, 0.00234 µM
[14] = RPMI 5 mM glucose + 10% FBS, 0.00702 µM
[15] = RPMI 5 mM glucose + 10% FBS, 0.0211 µM
[16] = RPMI 5 mM glucose + 10% FBS, 0.0632 µM
[17] = RPMI 5 mM glucose + 10% FBS, 0.19 µM
[18] = RPMI 5 mM glucose + 10% FBS, 0.569 µM
[19] = RPMI 5 mM glucose + 10% FBS, 1.71 µM
[20] = RPMI 5 mM glucose + 10% FBS, 5.12 µM
[21] = RPMI 5 mM glucose + 10% FBS, 15.4 µM
[22] = RPMI 5 mM glucose + 10% FBS, 46.1 µM

Structure (SMILES)	cell viability [1]	cell viability [2]	cell viability [3]	cell viability [4]	cell viability [5]	cell viability [6]	cell viability [7]	cell viability [8]	cell viability [9]	cell viability [10]	cell viability [11]	cell viability [12]	cell viability [13]	cell viability [14]	cell viability [15]	cell viability [16]	cell viability [17]	cell viability [18]	cell viability [19]	cell viability [20]	cell viability [21]	cell viability [22]
CC(=O)OCC(=O)[C@@]1(O)CC[C@H]2[C@@H]3CCC/4=C/C(=O)/C=C\[C@]4(C)[C@H]3[C@@H](O)C[C@]12C	117%	106%	104%	112%	103%	78.8%	69.3%	52.7%	48.2%	88%	90.5%	121%	124%	130%	124%	122%	99.3%	110%	81.4%	60.4%	128%	121%
CC(C)(C)[C@]1(O)C[C@@H]2OC(=O)C[C@@]23C(=O)O[C@@H]2OC(=O)[C@H](O)C213 (stereo partly specified)	113%	108%	109%	104%	110%	99.1%	104%	111%	105%	113%	115%	110%	139%	120%	148%	114%	108%	113%	90.4%	118%	134%	125%
Cc1n[nH]c2ccc(-c3cncc(OC[C@@H](N)Cc4ccccc4)c3)cc12	117%	124%	117%	108%	123%	98.2%	71.6%	56.3%	14.5%	5.34%	4.07%	105%	105%	116%	110%	102%	98%	92.7%	64%	7.19%	4.27%	3.39%

Reference: the supplement of paper PMC11451515
